Target: T1, mTOR (Homo sapiens, UniProt P42345)
T1 construct: purchased Invitrogen PR8683A
Experiment: mTOR HTR-FRET assay
Type: biochemical
Details: read-out: Act. Level (IC50 in mTor HTR-FRET assay)
Experimental: The following is an example of an assay that can be used to determine the mTOR inhibitory activity of a test compound. Heteroaryl Compounds were dissolved in DMSO and prepared as 10 mM stocks and diluted appropriately for the experiments. Reagents were prepared as follows:
“Simple TOR buffer” (used to dilute high glycerol TOR fraction): 10 mM Tris pH 7.4, 100 mM NaCl, 0.1% Tween-20, 1 mM DTT. Invitrogen mTOR (cat #PR8683A) was diluted in this buffer to an assay concentration of 0.200 μg/mL.
To 20 μL of the Simple mTor buffer is added 0.5 μL of test compound in DMSO. To initiate the reaction 5 μL of ATP/Substrate solution was added to 20 μL of the Simple TOR buffer solution (control) and to the compound solution prepared above.

T1 sequence (P42345 1360-2549 limits assumed): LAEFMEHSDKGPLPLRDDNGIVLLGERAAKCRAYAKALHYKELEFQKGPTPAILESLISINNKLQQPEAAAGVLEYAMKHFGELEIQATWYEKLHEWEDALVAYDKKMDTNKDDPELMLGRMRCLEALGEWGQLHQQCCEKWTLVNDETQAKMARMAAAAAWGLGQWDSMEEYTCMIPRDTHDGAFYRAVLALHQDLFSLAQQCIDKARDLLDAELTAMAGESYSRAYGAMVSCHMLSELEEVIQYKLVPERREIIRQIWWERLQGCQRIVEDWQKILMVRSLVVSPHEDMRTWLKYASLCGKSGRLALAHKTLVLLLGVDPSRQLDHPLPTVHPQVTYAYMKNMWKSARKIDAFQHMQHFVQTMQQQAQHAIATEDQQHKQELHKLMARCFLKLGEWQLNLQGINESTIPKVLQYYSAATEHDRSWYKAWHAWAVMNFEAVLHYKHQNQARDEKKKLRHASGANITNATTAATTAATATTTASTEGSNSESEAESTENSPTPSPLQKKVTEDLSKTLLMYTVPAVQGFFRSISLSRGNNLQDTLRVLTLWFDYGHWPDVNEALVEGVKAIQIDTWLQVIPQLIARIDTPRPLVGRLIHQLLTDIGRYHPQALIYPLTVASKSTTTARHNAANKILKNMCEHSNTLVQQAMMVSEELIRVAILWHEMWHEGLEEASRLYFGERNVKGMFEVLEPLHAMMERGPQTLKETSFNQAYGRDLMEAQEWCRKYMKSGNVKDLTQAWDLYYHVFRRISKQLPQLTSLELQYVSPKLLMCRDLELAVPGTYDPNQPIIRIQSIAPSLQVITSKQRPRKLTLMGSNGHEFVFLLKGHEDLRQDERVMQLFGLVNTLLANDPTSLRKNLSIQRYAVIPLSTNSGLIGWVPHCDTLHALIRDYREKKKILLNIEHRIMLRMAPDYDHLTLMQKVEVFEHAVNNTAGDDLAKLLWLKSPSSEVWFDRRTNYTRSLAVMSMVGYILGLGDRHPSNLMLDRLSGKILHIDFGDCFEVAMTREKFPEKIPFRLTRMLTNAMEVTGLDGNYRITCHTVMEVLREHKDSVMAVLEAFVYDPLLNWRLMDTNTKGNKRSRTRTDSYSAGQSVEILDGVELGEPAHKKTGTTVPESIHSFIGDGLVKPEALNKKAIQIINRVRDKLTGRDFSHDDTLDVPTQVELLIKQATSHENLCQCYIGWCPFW

C[C@H](O)c1ccc(-c2cnc3c(n2)N(CCC2CCOCC2)CC(=O)N3)cn1 [Example 83, (S)-6-(6-(1-hydroxyethyl)pyridin-3-yl)-4-(2-(tetrahydro-2H-pyran-4-yl)ethyl)-3,4-dihydropyrazino[2,3-b]pyrazin-2(1H)-one]
IC50: 250 to 500 nM

Cc1cc(-c2nnc[nH]2)ccc1-c1cnc2c(n1)N(CCC1CCOCC1)C(C)(C)C(=O)N2 [Example 84, 3,3-dimethyl-6-(2-methyl-4-(4H-1,2,4-triazol-3-yl)phenyl)-4-(2-(tetrahydro-2H-pyran-4-yl)ethyl)-3,4-dihydropyrazino[2,3-b]pyrazin-2(1H)-one]
IC50: 0.005 to 250 nM

CC(C)(O)c1ccc(-c2cnc3c(n2)N(CCC2CCOCC2)C(C)(C)C(=O)N3)cn1 [Example 85, 6-(6-(2-hydroxypropan-2-yl)pyridin-3-yl)-3,3-dimethyl-4-(2-(tetrahydro-2H-pyran-4-yl)ethyl)-3,4-dihydropyrazino[2,3-b]pyrazin-2(1H)-one]
IC50: 500 to 1000 nM

CO[C@H]1CC[C@H](N2CC(=O)Nc3ncc(-c4ccc(C(C)(C)O)cc4)nc32)CC1 [Example 86, 6-(4-(2-hydroxypropan-2-yl)phenyl)-4-(trans-4-methoxycyclohexyl)-3,4-dihydropyrazino[2,3-b]pyrazin-2(1H)-one]
IC50: 0.005 to 250 nM

CO[C@H]1CC[C@H](CN2CC(=O)Nc3ncc(-c4ccc(C(C)(C)O)cc4)nc32)CC1 [Example 87, 6-(4-(2-hydroxypropan-2-yl)phenyl)-4-((trans-4-methoxycyclohexyl)methyl)-3,4-dihydropyrazino[2,3-b]pyrazin-2(1H)-one]
IC50: 250 to 500 nM

CC(C)(O)c1ccc(-c2cnc3c(n2)N(CC2CCOCC2)CC(=O)N3)cc1 [Example 90, 6-(4-(2-hydroxypropan-2-yl)phenyl)-4-((tetrahydro-2H-pyran-4-yl)methyl)-3,4-dihydropyrazino[2,3-b]pyrazin-2(1H)-one]
IC50: 0.005 to 250 nM

O=C1Nc2ncc(-c3ccc(-c4nnc[nH]4)nc3)nc2N2CCOCC12 (stereo not drawn) [Example 92, 9-(6-(4H-1,2,4-triazol-3-yl)-3-pyridyl)-6,11,4a-trihydromorpholino[4,3-e]pyrazino[2,3-b]pyrazin-5-one]
IC50: 500 to 1000 nM

Cc1nc(-c2nnc[nH]2)ccc1-c1cnc2c(n1)N(CC1CCOCC1)CC(=O)N2 [Example 93, 6-(2-methyl-6-(4H-1,2,4-triazol-3-yl)pyridin-3-yl)-4-((tetrahydro-2H-pyran-4-yl)methyl)-3,4-dihydropyrazino[2,3-b]pyrazin-2(1H)-one]
IC50: 250 to 500 nM

CO[C@H]1CC[C@@H](N2CC(=O)Nc3ncc(-c4ccc(C#N)nc4C)nc32)CC1 [Example 94, 5-(8-(cis-4-methoxycyclohexyl)-6-oxo-5,6,7,8-tetrahydropyrazino[2,3-b]pyrazin-2-yl)-6-methylpicolinonitrile]
IC50: 1000 to 10000 nM

COCC(=O)N1CCN2c3nc(-c4ccc(-c5nnc[nH]5)cc4C)cnc3NC(=O)C2C1 (stereo not drawn) [Example 96, 9-(4-(4H-1,2,4-triazol-3-yl)-2-methylphenyl)-3-(2-methoxyacetyl)-6,11,4a-trihydropiperazino[1,2-e]pyrazino[2,3-b]pyrazin-5-one]
IC50: 0.005 to 250 nM

Cc1cc(-c2nnc[nH]2)ccc1-c1cnc2c(n1)N1CCNCC1C(=O)N2 (stereo not drawn) [Example 97, 9-(4-(4H-1,2,4-triazol-3-yl)-2-methylphenyl)-6,11,4a-trihydropiperazino[1,2-e]pyrazino[2,3-b]pyrazin-5-one]
IC50: 0.005 to 250 nM

COCCN1CCN2c3nc(-c4ccc(-c5nnc[nH]5)cc4C)cnc3NC(=O)C2C1 (stereo not drawn) [Example 98, 9-(4-(4H-1,2,4-triazol-3-yl)-2-methylphenyl)-3-(2-methoxyethyl)-6,11,4a-trihydropiperazino[1,2-e]pyrazino[2,3-b]pyrazin-5-one]
IC50: 250 to 500 nM

Cc1nc(-c2nnc[nH]2)ccc1-c1cnc2c(n1)N(CC1CCCC1)CC(=O)N2 [Example 99, 4-(cyclopentylmethyl)-6-(2-methyl-6-(4H-1,2,4-triazol-3-yl)pyridin-3-yl)-3,4-dihydropyrazino[2,3-b]pyrazin-2(1H)-one]
IC50: 0.005 to 250 nM

Cc1nc(-c2nnc[nH]2)ccc1-c1cnc2c(n1)N1CCOCC1C(=O)N2 (stereo not drawn) [Example 100, 9-(6-(4H-1,2,4-triazol-3-yl)-2-methyl-3-pyridyl)-6,11,4a-trihydromorpholino[4,3-e]pyrazino[2,3-b]pyrazin-5-one]
IC50: 250 to 500 nM

CC(C)(O)c1ccc(-c2cnc3c(n2)N([C@H]2CC[C@H](O)CC2)CC(=O)N3)cn1 [Example 101, 4-(trans-4-hydroxycyclohexyl)-6-(6-(2-hydroxypropan-2-yl)pyridin-3-yl)-3,4-dihydropyrazino[2,3-b]pyrazin-2(1H)-one]
IC50: 0.005 to 250 nM

CC(C)(O)c1ccc(-c2cnc3c(n2)N([C@H]2CC[C@@H](O)CC2)CC(=O)N3)cn1 [Example 102, 4-(cis-4-hydroxycyclohexyl)-6-(6-(2-hydroxypropan-2-yl)pyridin-3-yl)-3,4-dihydropyrazino[2,3-b]pyrazin-2(1H)-one]
IC50: 250 to 500 nM

CC(C)(O)c1ccc(-c2cnc3c(n2)N(CC2CCOC2)CC(=O)N3)cn1 (stereo not drawn) [Example 103, 6-(6-(2-hydroxypropan-2-yl)pyridin-3-yl)-4-((tetrahydrofuran-3-yl)methyl)-3,4-dihydropyrazino[2,3-b]pyrazin-2(1H)-one]
IC50: 500 to 1000 nM

CC(C)(O)c1ccc(-c2cnc3c(n2)N(CC2CCCC2)CC(=O)N3)cn1 [Example 104, 4-(cyclopentylmethyl)-6-(6-(2-hydroxypropan-2-yl)pyridin-3-yl)-3,4-dihydropyrazino[2,3-b]pyrazin-2(1H)-one]
IC50: 0.005 to 250 nM

CC(C)(C)CN1CC(=O)Nc2ncc(-c3ccc(C(C)(C)O)nc3)nc21 [Example 105, 6-(6-(2-hydroxypropan-2-yl)pyridin-3-yl)-4-neopentyl-3,4-dihydropyrazino[2,3-b]pyrazin-2(1H)-one]
IC50: 250 to 500 nM

CC(C)CN1CC(=O)Nc2ncc(-c3ccc(C(C)(C)O)nc3)nc21 [Example 106, 6-(6-(2-hydroxypropan-2-yl)pyridin-3-yl)-4-isobutyl-3,4-dihydropyrazino[2,3-b]pyrazin-2(1H)-one]
IC50: 500 to 1000 nM

Cc1cc(-c2nnc[nH]2)ccc1-c1cnc2c(n1)N(CCC1CCOCC1)C(C)C(=O)N2 (stereo not drawn) [Example 107, 3-methyl-6-(2-methyl-4-(4H-1,2,4-triazol-3-yl)phenyl)-4-(2-(tetrahydro-2H-pyran-4-yl)ethyl)-3,4-dihydropyrazino[2,3-b]pyrazin-2(1H)-one]
IC50: 0.005 to 250 nM

CC(C)(O)c1ccc(-c2cnc3c(n2)N(C2CCNCC2)CC(=O)N3)cn1 [Example 108, 6-(6-(2-hydroxypropan-2-yl)pyridin-3-yl)-4-(piperidin-4-yl)-3,4-dihydropyrazino[2,3-b]pyrazin-2(1H)-one]
IC50: 1000 to 10000 nM

CC(C)(O)c1ccc(-c2cnc3c(n2)N(CCC2CCCOC2)CC(=O)N3)cn1 (stereo not drawn) [Example 109, 6-(6-(2-hydroxypropan-2-yl)pyridin-3-yl)-4-(2-(tetrahydro-2H-pyran-3-yl)ethyl)-3,4-dihydropyrazino[2,3-b]pyrazin-2(1H)-one]
IC50: 0.005 to 250 nM

CO[C@H]1C[C@@H]2C(=O)Nc3ncc(-c4ccc(-c5nnc[nH]5)cc4C)nc3N2C1 [Example 112, 8-(4-(4H-1,2,4-triazol-3-yl)-2-methylphenyl)(2S,3aR)-2-methoxy-5,10,3a-trihydropyrazino[2,3-b]pyrrolidino[1,2-e]pyrazin-4-one]
IC50: 0.005 to 250 nM
